Legend:
Toll-like receptor 7 [1] = molecular target: T1, Toll-like receptor 7 (Homo sapiens, UniProt Q9NYK1)
T1 sequence (Q9NYK1 whole entry): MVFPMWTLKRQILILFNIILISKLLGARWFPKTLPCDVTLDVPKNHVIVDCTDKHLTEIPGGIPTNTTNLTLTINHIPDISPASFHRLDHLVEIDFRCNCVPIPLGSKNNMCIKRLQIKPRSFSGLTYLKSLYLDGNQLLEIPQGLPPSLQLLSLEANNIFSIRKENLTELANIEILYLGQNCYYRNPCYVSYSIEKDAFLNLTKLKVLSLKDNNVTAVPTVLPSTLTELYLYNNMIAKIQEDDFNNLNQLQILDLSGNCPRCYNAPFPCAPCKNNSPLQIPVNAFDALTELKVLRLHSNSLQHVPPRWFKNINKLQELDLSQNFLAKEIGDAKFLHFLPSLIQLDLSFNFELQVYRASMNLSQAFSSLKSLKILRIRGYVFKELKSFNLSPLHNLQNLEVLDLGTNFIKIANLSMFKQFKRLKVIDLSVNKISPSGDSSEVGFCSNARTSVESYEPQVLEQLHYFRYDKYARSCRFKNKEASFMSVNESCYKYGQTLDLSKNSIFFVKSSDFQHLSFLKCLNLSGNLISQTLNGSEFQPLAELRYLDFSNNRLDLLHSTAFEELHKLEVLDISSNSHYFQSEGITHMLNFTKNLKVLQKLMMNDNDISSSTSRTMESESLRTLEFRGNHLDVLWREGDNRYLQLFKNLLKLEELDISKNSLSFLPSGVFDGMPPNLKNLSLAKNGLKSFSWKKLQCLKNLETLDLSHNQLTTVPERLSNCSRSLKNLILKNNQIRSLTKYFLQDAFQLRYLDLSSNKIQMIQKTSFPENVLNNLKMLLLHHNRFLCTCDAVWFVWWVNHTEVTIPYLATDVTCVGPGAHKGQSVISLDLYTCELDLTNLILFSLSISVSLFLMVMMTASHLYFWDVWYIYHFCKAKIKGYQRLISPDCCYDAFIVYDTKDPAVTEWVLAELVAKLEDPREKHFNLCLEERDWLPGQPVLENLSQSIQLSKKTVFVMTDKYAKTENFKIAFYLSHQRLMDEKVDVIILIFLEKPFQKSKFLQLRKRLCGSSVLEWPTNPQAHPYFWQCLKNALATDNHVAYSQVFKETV

Toll-like receptor 7 [2] = molecular target: T1, Toll-like receptor 7; assay: Agonist activity at TLR7 expressed in HEK293 cells assessed as increase in NF-kappaB activation at 25 ug/mL by SEAP assay; type: functional, cell-based

## CCNCc1nc2c3ccccc3ncc2n1CC(C)(C)O
Toll-like receptor 7 [1]
  IC50: 7.5 µM

## CCNCc1nc2c3ccccc3nc(N)c2n1CC(C)(C)O.O=C(O)C(F)(F)F.O=C(O)C(F)(F)F
Toll-like receptor 7 [1]
  IC50: 25 µM
Toll-like receptor 7 [2]
  IC50: Not Active

From ChEMBL document CHEMBL1153973, “Regioisomerism-dependent TLR7 agonism and antagonism in an imidazoquinoline” (Bioorg Med Chem Lett, 2009)
